Laboratory results as given in ChEMBL document CHEMBL1201862, “PubChem BioAssay data set” (2004).
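A five-concentration, 48-hour dose response in 96-well plates underlies each endpoint, interpolated linearly between surrounding concentrations. GI50 is the concentration that inhibits growth by half.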 Activity calls are given as the source filed them. No stated cut-off is given here; in the data, active = GI50 up to about 1.1 µM and inactive = higher.

Columns and labels:
Test in all cases: DTP human tumour cell line panel, 48 h
IGROV-1 = test system: IGROV-1
SNB-75 = test system: SNB-75
SF-539 = test system: SF-539
SK-OV-3 = test system: SK-OV-3
UACC-62 = test system: UACC-62
SF-295 = test system: SF-295
OVCAR-4 = test system: OVCAR-4
HCT-116 = test system: HCT-116
PC-3 = test system: PC-3
MDA-MB-231 = test system: MDA-MB-231
COLO 205 = test system: COLO 205
NCI/ADR-RES = test system: NCI/ADR-RES
HOP-62 = test system: HOP-62
U-251 = test system: U-251
EKVX = test system: EKVX
BT-549 = test system: BT-549
MDA-MB-435 = test system: MDA-MB-435
NCI-H522 = test system: NCI-H522
K562 = test system: K562
Hs-578T = test system: Hs-578T

Measured: GI50

CC1=CC(=O)/C(=C/Nc2nc(-c3cccc([N+](=O)[O-])c3)cs2)C(=O)O1
inactive: IGROV-1 38.4 µM | SNB-75 35.9 µM | SF-539 69 µM | SK-OV-3 > 100 µM | UACC-62 32.5 µM | SF-295 > 100 µM | OVCAR-4 > 100 µM | HCT-116 37.7 µM | PC-3 > 100 µM | MDA-MB-231 57.4 µM | COLO 205 85.7 µM | NCI/ADR-RES 44.4 µM | HOP-62 > 100 µM | U-251 63.1 µM | EKVX 39.4 µM | BT-549 21.9 µM | MDA-MB-435 75.2 µM

CN(C(=O)c1ccc2c(c1)sc1c(=O)n(C)c3ccccc3c12)c1ccccc1
inactive: IGROV-1 > 100 µM | SNB-75 > 100 µM | SF-539 > 100 µM | SK-OV-3 > 100 µM | UACC-62 > 100 µM | SF-295 > 100 µM | OVCAR-4 > 100 µM | HCT-116 > 100 µM | PC-3 > 100 µM | NCI-H522 > 100 µM | K562 > 100 µM | MDA-MB-231 > 100 µM | COLO 205 > 100 µM | NCI/ADR-RES > 100 µM | U-251 50 µM | EKVX > 100 µM | BT-549 > 100 µM | MDA-MB-435 > 100 µM

CC1=CCC(C(C)(C)NC(=O)c2ccccc2)C/C1=N/O (configuration not stated)
inactive: IGROV-1 > 100 µM | SNB-75 > 100 µM | SF-539 > 100 µM | SK-OV-3 > 100 µM | UACC-62 > 100 µM | SF-295 > 100 µM | OVCAR-4 > 100 µM | HCT-116 > 100 µM | PC-3 > 100 µM | NCI-H522 > 100 µM | K562 > 100 µM | MDA-MB-231 > 100 µM | COLO 205 > 100 µM | HOP-62 > 100 µM | U-251 > 100 µM | EKVX > 100 µM | BT-549 > 100 µM | MDA-MB-435 > 100 µM

O=C(/N=N/c1ccc([N+](=O)[O-])cc1)NNc1ccc([N+](=O)[O-])cc1
inactive: IGROV-1 12.8 µM | SNB-75 23.9 µM | UACC-62 10.3 µM | OVCAR-4 18.1 µM | HCT-116 11.8 µM | PC-3 9.62 µM | NCI-H522 17.7 µM | K562 11.4 µM | MDA-MB-231 24 µM | HOP-62 13.3 µM | U-251 18.9 µM | BT-549 15.5 µM | MDA-MB-435 12.8 µM

CC(=O)[C@]12OC(=O)C3=C1[C@H](CC[C@@H]3C)[C@@H](C)C[C@H]2C=C(C)C
inactive: IGROV-1 7.35 µM | SF-539 9.14 µM | SK-OV-3 11 µM | UACC-62 5.68 µM | SF-295 6.4 µM | HCT-116 6.55 µM | PC-3 9.2 µM | NCI-H522 5.36 µM | K562 5.6 µM | MDA-MB-231 8.2 µM | COLO 205 8.79 µM | NCI/ADR-RES 9.12 µM | HOP-62 8.61 µM | U-251 7.8 µM | Hs-578T 8.18 µM | MDA-MB-435 7.93 µM

Cc1cc(C)nc(NS(=O)(=O)c2ccc(NC(=O)c3c4ccccc4nc4ccccc34)cc2)n1
inactive: IGROV-1 31.2 µM | SNB-75 > 100 µM | SF-539 > 100 µM | SK-OV-3 > 100 µM | UACC-62 > 100 µM | SF-295 > 100 µM | OVCAR-4 > 100 µM | HCT-116 68.4 µM | PC-3 > 100 µM | NCI-H522 64.3 µM | K562 > 100 µM | MDA-MB-231 > 100 µM | COLO 205 75.2 µM | NCI/ADR-RES > 100 µM | HOP-62 61.7 µM | U-251 69.3 µM | EKVX > 100 µM | BT-549 96.4 µM | MDA-MB-435 > 100 µM

COc1cccc(C2c3cc4c(cc3OC(N3CCCC3)C2C)OCO4)c1OC (configuration not stated)
inactive: IGROV-1 2.78 µM | SF-539 3.33 µM | UACC-62 5.78 µM | SF-295 1.92 µM | HCT-116 1.64 µM | PC-3 4.48 µM | NCI-H522 3.69 µM | K562 3.17 µM | COLO 205 3.46 µM | NCI/ADR-RES 2.32 µM | HOP-62 8.17 µM | EKVX 6.49 µM | Hs-578T 1.59 µM | MDA-MB-435 4.06 µM

C1CCCCC2(CCCCCCCCC3(CCC1)SCCS3)SCCS2
inactive: IGROV-1 > 100 µM | SNB-75 > 100 µM | SF-539 > 100 µM | SK-OV-3 > 100 µM | UACC-62 > 100 µM | SF-295 > 100 µM | OVCAR-4 > 100 µM | HCT-116 > 100 µM | PC-3 > 100 µM | NCI-H522 > 100 µM | K562 > 100 µM | COLO 205 > 100 µM | NCI/ADR-RES > 100 µM | HOP-62 > 100 µM | U-251 > 100 µM | EKVX > 100 µM | Hs-578T > 100 µM | MDA-MB-435 > 100 µM

COc1ccc2cc(C(C)C(O)c3cc(F)c(F)c(F)c3F)ccc2c1 (configuration not stated)
inactive: IGROV-1 > 100 µM | SNB-75 16.3 µM | SK-OV-3 > 100 µM | UACC-62 > 100 µM | SF-295 40.4 µM | OVCAR-4 70.5 µM | HCT-116 > 100 µM | PC-3 > 100 µM | K562 30.8 µM | MDA-MB-231 > 100 µM | COLO 205 > 100 µM | NCI/ADR-RES 97.9 µM | HOP-62 26.2 µM | U-251 > 100 µM | EKVX 45.5 µM | BT-549 > 100 µM | MDA-MB-435 > 100 µM

CSc1ncnc2c1cnn2Cc1cn(COCC(O)CO)nn1 (configuration not stated)
inactive: IGROV-1 > 100 µM | SF-539 > 100 µM | SK-OV-3 > 100 µM | UACC-62 > 100 µM | SF-295 > 100 µM | OVCAR-4 > 100 µM | HCT-116 > 100 µM | PC-3 > 100 µM | NCI-H522 21.2 µM | MDA-MB-231 > 100 µM | COLO 205 > 100 µM | NCI/ADR-RES > 100 µM | HOP-62 > 100 µM | U-251 > 100 µM | EKVX > 100 µM | BT-549 > 100 µM | MDA-MB-435 > 100 µM

Cc1nc2c(O)cc3c4c(n(Cc5ccccc5)c3c2nc1C)C(=O)CCC4
inactive: SF-539 17.5 µM | SK-OV-3 14.6 µM | UACC-62 24.5 µM | SF-295 34 µM | OVCAR-4 13.9 µM | HCT-116 34.4 µM | PC-3 49.7 µM | K562 93.5 µM | MDA-MB-231 > 100 µM | COLO 205 83 µM | NCI/ADR-RES 32.1 µM | HOP-62 12.7 µM | U-251 12 µM | EKVX > 100 µM | Hs-578T 14.4 µM | MDA-MB-435 > 100 µM

Cc1c(O)c(OC2OC(CO)C(O)C(O)C2O)cc2c1CC[C@@H]1C2(C)C(=O)C[C@]2(C)[C@@H]([C@@](C)(O)C(O)/C=C/C(C)(C)O)[C@H](O)C[C@@]12C (some centres not stated)
inactive: IGROV-1 > 100 µM | SNB-75 > 100 µM | SF-539 > 100 µM | SK-OV-3 > 100 µM | UACC-62 > 100 µM | SF-295 > 100 µM | OVCAR-4 > 100 µM | HCT-116 > 100 µM | PC-3 > 100 µM | NCI-H522 > 100 µM | K562 > 100 µM | MDA-MB-231 > 100 µM | COLO 205 > 100 µM | NCI/ADR-RES > 100 µM | HOP-62 > 100 µM | U-251 > 100 µM | EKVX > 100 µM | BT-549 > 100 µM | MDA-MB-435 > 100 µM
